Measured values taken from patent US20180243286A1, “Antibacterial compositions of a beta-lactamase inhibitor with a cephalosporin” (WOCKHARDT LIMITED, priority 2015, published 2018).

Assays:
[1] = test system: K. pneumoniae H521 producing KPC, SHV and TEM beta-lactamase enzymes; test: Time kill study against clinical isolate of K. pneumoniae H521; assay type: cell-based; conditions: for Bacterial count (Log10 CFU/ml) 0 hour: 0 hour (starting inoculum); for Change in Log10 CFU/ml over 0 hour count after 8 hours: positive = increase; for Effect on bacterial counts when used alone: throughout the duration of the study
Protocol: (§1) The killing effect of the combinations according to invention was studied by performing time kill studies. In a typical time kill study, the freshly grown cultures were diluted to the required cell density (initial starting inoculum) in Cation adjusted Muller Hinton broth medium (BD, USA). The antibacterial agents (either alone or in combination) at the required concentrations were added into the culture-containing medium. The samples were incubated under shaking condition (120 rpm) at 37° C. Enumeration of viable bacterial count was done every 2 hour by diluting in normal saline and plating on to the Tryptic Soya Agar plates (BD, USA). The plates were incubated for 24 hours to arrive at the viable bacterial count. The results are expressed in terms of log10 CFU per ml. In general, the decrease of 1 log10 CFU/ml corresponds to 90% killing of bacteria. Similarly, 2 log10 CFU/ml reductions indicates to 99% killing of bacteria and 3 log10 CFU/ml reductions is equal to 99.9% killing of bacteria.
K. pneumoniae H521 produces resistant KPC, SHV and TEM beta-lactamase enzymes.

[2] = test system: E. coli M50 producing CMY 6, DHA-1/2 beta-lactamase enzymes; test: Time kill study against clinical isolate of E. coli M50; assay type: cell-based; conditions: for Bacterial count (Log10 CFU/ml) 0 hour: 0 hour (starting inoculum); for Effect on bacterial counts when used alone: throughout the duration of the study
Protocol: as §1
E. coli M50 produces resistant CMY 6, DHA-1/2 beta-lactamase enzymes.

[3] = agent alone 4 mcg/ml, negative = reduction

C=CC1=C(C(=O)O)N2C(=O)[C@@H](NC(=O)/C(=N\OCC(=O)O)c3csc(N)n3)[C@H]2SC1 [Cefixime]
Bacterial count (Log10 CFU/ml) 0 hour ([1]; agent alone 4 mcg/ml): 7.18 Log10 CFU/ml
Bacterial count (Log10 CFU/ml) 2 hour ([1]; agent alone 4 mcg/ml): 8.26 Log10 CFU/ml
Bacterial count (Log10 CFU/ml) 4 hour ([1]; agent alone 4 mcg/ml): 8.85 Log10 CFU/ml
Bacterial count (Log10 CFU/ml) 6 hour ([1]; agent alone 4 mcg/ml): 8.98 Log10 CFU/ml
Bacterial count (Log10 CFU/ml) 8 hour ([1]; agent alone 4 mcg/ml): 8.95 Log10 CFU/ml
Change in Log10 CFU/ml over 0 hour count after 8 hours ([1]; agent alone 4 mcg/ml): 1.77 Log10 CFU/ml
Bacterial count (Log10 CFU/ml) 0 hour ([2]; agent alone 4 mcg/ml): 7.14 Log10 CFU/ml
Bacterial count (Log10 CFU/ml) 2 hour ([2]; agent alone 4 mcg/ml): 8.95 Log10 CFU/ml
Bacterial count (Log10 CFU/ml) 4 hour ([2]; agent alone 4 mcg/ml): 8.40 Log10 CFU/ml
Bacterial count (Log10 CFU/ml) 6 hour ([2]; agent alone 4 mcg/ml): 8.90 Log10 CFU/ml
Bacterial count (Log10 CFU/ml) 8 hour ([2]; agent alone 4 mcg/ml): 8.65 Log10 CFU/ml
Change in Log10 CFU/ml over 0 hour count after 8 hours [2, 3]: 1.51 Log10 CFU/ml

COCC1=C(C(=O)O)N2C(=O)[C@@H](NC(=O)/C(=N\OC)c3csc(N)n3)[C@H]2SC1 [Cefpodoxime]
Bacterial count (Log10 CFU/ml) 0 hour ([1]; agent alone 4 mcg/ml): 7.18 Log10 CFU/ml
Bacterial count (Log10 CFU/ml) 2 hour ([1]; agent alone 4 mcg/ml): 8.60 Log10 CFU/ml
Bacterial count (Log10 CFU/ml) 4 hour ([1]; agent alone 4 mcg/ml): 8.74 Log10 CFU/ml
Bacterial count (Log10 CFU/ml) 6 hour ([1]; agent alone 4 mcg/ml): 8.93 Log10 CFU/ml
Bacterial count (Log10 CFU/ml) 8 hour ([1]; agent alone 4 mcg/ml): 8.81 Log10 CFU/ml
Change in Log10 CFU/ml over 0 hour count after 8 hours ([1]; agent alone 4 mcg/ml): 1.63 Log10 CFU/ml
Bacterial count (Log10 CFU/ml) 0 hour ([2]; agent alone 4 mcg/ml): 7.14 Log10 CFU/ml
Bacterial count (Log10 CFU/ml) 2 hour ([2]; agent alone 4 mcg/ml): 8.18 Log10 CFU/ml
Bacterial count (Log10 CFU/ml) 4 hour ([2]; agent alone 4 mcg/ml): 8.88 Log10 CFU/ml
Bacterial count (Log10 CFU/ml) 6 hour ([2]; agent alone 4 mcg/ml): 8.95 Log10 CFU/ml
Bacterial count (Log10 CFU/ml) 8 hour ([2]; agent alone 4 mcg/ml): 8.40 Log10 CFU/ml
Change in Log10 CFU/ml over 0 hour count after 8 hours [2, 3]: 1.26 Log10 CFU/ml

Nc1nc(/C(=C/CC(=O)O)C(=O)N[C@@H]2C(=O)N3C(C(=O)O)=CCS[C@H]23)cs1 [Ceftibuten]
Bacterial count (Log10 CFU/ml) 0 hour ([1]; agent alone 4 mcg/ml): 7.18 Log10 CFU/ml
Bacterial count (Log10 CFU/ml) 2 hour ([1]; agent alone 4 mcg/ml): 8.18 Log10 CFU/ml
Bacterial count (Log10 CFU/ml) 4 hour ([1]; agent alone 4 mcg/ml): 8.88 Log10 CFU/ml
Bacterial count (Log10 CFU/ml) 6 hour ([1]; agent alone 4 mcg/ml): 8.40 Log10 CFU/ml
Bacterial count (Log10 CFU/ml) 8 hour ([1]; agent alone 4 mcg/ml): 8.60 Log10 CFU/ml
Change in Log10 CFU/ml over 0 hour count after 8 hours ([1]; agent alone 4 mcg/ml): 1.42 Log10 CFU/ml
Effect on bacterial counts when used alone [1]: did not reduce the bacterial counts
Bacterial count (Log10 CFU/ml) 0 hour ([2]; agent alone 4 mcg/ml): 7.14 Log10 CFU/ml
Bacterial count (Log10 CFU/ml) 2 hour ([2]; agent alone 4 mcg/ml): 7.90 Log10 CFU/ml
Bacterial count (Log10 CFU/ml) 4 hour ([2]; agent alone 4 mcg/ml): 8.40 Log10 CFU/ml
Bacterial count (Log10 CFU/ml) 6 hour ([2]; agent alone 4 mcg/ml): 8.98 Log10 CFU/ml
Bacterial count (Log10 CFU/ml) 8 hour ([2]; agent alone 4 mcg/ml): 8.93 Log10 CFU/ml
Change in Log10 CFU/ml over 0 hour count after 8 hours [2, 3]: 1.79 Log10 CFU/ml
Effect on bacterial counts when used alone [2]: did not reduce the bacterial counts

CO/N=C(\C(=O)N[C@@H]1C(=O)N2C(C(=O)O)=C(COC(N)=O)CS[C@H]12)c1ccco1 [Cefuroxime]
Bacterial count (Log10 CFU/ml) 0 hour ([1]; agent alone 4 mcg/ml): 7.18 Log10 CFU/ml
Bacterial count (Log10 CFU/ml) 2 hour ([1]; agent alone 4 mcg/ml): 8.48 Log10 CFU/ml
Bacterial count (Log10 CFU/ml) 4 hour ([1]; agent alone 4 mcg/ml): 8.70 Log10 CFU/ml
Bacterial count (Log10 CFU/ml) 6 hour ([1]; agent alone 4 mcg/ml): 8.78 Log10 CFU/ml
Bacterial count (Log10 CFU/ml) 8 hour ([1]; agent alone 4 mcg/ml): 8.60 Log10 CFU/ml
Change in Log10 CFU/ml over 0 hour count after 8 hours ([1]; agent alone 4 mcg/ml): 1.42 Log10 CFU/ml
Effect on bacterial counts when used alone [1]: did not reduce the bacterial counts
Bacterial count (Log10 CFU/ml) 0 hour ([2]; agent alone 4 mcg/ml): 7.14 Log10 CFU/ml
Bacterial count (Log10 CFU/ml) 2 hour ([2]; agent alone 4 mcg/ml): 8.33 Log10 CFU/ml
Bacterial count (Log10 CFU/ml) 4 hour ([2]; agent alone 4 mcg/ml): 8.54 Log10 CFU/ml
Bacterial count (Log10 CFU/ml) 6 hour ([2]; agent alone 4 mcg/ml): 9.20 Log10 CFU/ml
Bacterial count (Log10 CFU/ml) 8 hour ([2]; agent alone 4 mcg/ml): 8.65 Log10 CFU/ml
Change in Log10 CFU/ml over 0 hour count after 8 hours [2, 3]: 1.51 Log10 CFU/ml
Effect on bacterial counts when used alone [2]: did not reduce the bacterial counts

NCCONC(=O)[C@@H]1CC[C@@H]2CN1C(=O)N2OS(=O)(=O)O [Compound of Formula (I), (2S,5R)—N-(2-aminoethoxy)-7-oxo-6-(sulfoxy)-1,6-diazabicyclo[3.2.1]octane-2-carboxamide]
Bacterial count (Log10 CFU/ml) 0 hour ([1]; agent alone 4 mcg/ml): 7.18 Log10 CFU/ml
Bacterial count (Log10 CFU/ml) 2 hour ([1]; agent alone 4 mcg/ml): 7.98 Log10 CFU/ml
Bacterial count (Log10 CFU/ml) 4 hour ([1]; agent alone 4 mcg/ml): 8 Log10 CFU/ml
Bacterial count (Log10 CFU/ml) 6 hour ([1]; agent alone 4 mcg/ml): 8.37 Log10 CFU/ml
Bacterial count (Log10 CFU/ml) 8 hour ([1]; agent alone 4 mcg/ml): 8.04 Log10 CFU/ml
Change in Log10 CFU/ml over 0 hour count after 8 hours ([1]; agent alone 4 mcg/ml): 0.86 Log10 CFU/ml
Effect on bacterial counts when used alone [1]: did not reduce the bacterial counts
Bacterial count (Log10 CFU/ml) 0 hour ([2]; agent alone 4 mcg/ml): 7.14 Log10 CFU/ml
Bacterial count (Log10 CFU/ml) 2 hour ([2]; agent alone 4 mcg/ml): 6.40 Log10 CFU/ml
Bacterial count (Log10 CFU/ml) 4 hour ([2]; agent alone 4 mcg/ml): 5.32 Log10 CFU/ml
Bacterial count (Log10 CFU/ml) 6 hour ([2]; agent alone 4 mcg/ml): 5.32 Log10 CFU/ml
Bacterial count (Log10 CFU/ml) 8 hour ([2]; agent alone 4 mcg/ml): 5.34 Log10 CFU/ml
Change in Log10 CFU/ml over 0 hour count after 8 hours [2, 3]: −1.8 Log10 CFU/ml
Effect on bacterial counts when used alone [2]: did not reduce the bacterial counts

C[C@@H](O)[C@H]1C(=O)N2C(C(=O)O)=C(SCCN=CN)C[C@H]12 [Imipenem]
Bacterial count (Log10 CFU/ml) 0 hour ([1]; 8 mcg/ml alone): 7.18 Log10 CFU/ml
Bacterial count (Log10 CFU/ml) 2 hour ([1]; 8 mcg/ml alone): 8.10 Log10 CFU/ml
Bacterial count (Log10 CFU/ml) 4 hour ([1]; 8 mcg/ml alone): 8.81 Log10 CFU/ml
Bacterial count (Log10 CFU/ml) 6 hour ([1]; 8 mcg/ml alone): 8.70 Log10 CFU/ml
Bacterial count (Log10 CFU/ml) 8 hour ([1]; 8 mcg/ml alone): 9.11 Log10 CFU/ml
Change in Log10 CFU/ml over 0 hour count after 8 hours ([1]; 8 mcg/ml alone): 1.93 Log10 CFU/ml
Bacterial count (Log10 CFU/ml) 0 hour ([2]; 1 mcg/ml alone): 7.14 Log10 CFU/ml
Bacterial count (Log10 CFU/ml) 2 hour ([2]; 1 mcg/ml alone): 4.25 Log10 CFU/ml
Bacterial count (Log10 CFU/ml) 4 hour ([2]; 1 mcg/ml alone): 4.60 Log10 CFU/ml
Bacterial count (Log10 CFU/ml) 6 hour ([2]; 1 mcg/ml alone): 6.04 Log10 CFU/ml
Bacterial count (Log10 CFU/ml) 8 hour ([2]; 1 mcg/ml alone): 7.34 Log10 CFU/ml
Change in Log10 CFU/ml over 0 hour count after 8 hours ([2]; 1 mcg/ml alone, positive = increase): 0.2 Log10 CFU/ml
